Laboratory results published in patent US20170058314A1, “NOVEL METHODOLOGY FOR IDENTIFYING ANTI-PERSISTER ACTIVITY AND ANTIMICROBIAL SUSCEPTIBILITY FOR BORRELIA BURGDORFERI AND OTHER BACTERIA” (priority 2014, published 2017).

How the values were obtained:
[1] = test system: round body form of B. burgdorferi; test: Subculture test of drug-treated round body form
Experimental: For induction of round body form of B. burgdorferi, B. burgdorferi spirochetes (1×10^5 spirochetes/mL) were cultured in BKS-H medium for 6 days without shaking. After the 6-day incubation, amoxicillin at a final concentration of 50 μg/mL was added to the culture for round body form induction. After 72 h induction at 33° C., the round body forms of B. burgdorferi were examined by the microscopy. The round body cells (100 μL) were transferred to 96-well tissue culture microplates for evaluation of the effects of antibiotic treatment.

[2] = test system: stationary phase B. burgdorferi persisters (strain B31); test: NCI compound library screen, SYBR Green I/PI assay (plate reader)
[3] = 10 μg/mL, 7 days treatment, then subculture

C[C@H]1c2cccc(O)c2C(=O)C2=C(O)[C@]3(O)C(=O)C(C(N)=O)=C(O)[C@@H](N(C)C)[C@@H]3[C@@H](O)[C@@H]21 [Doxycycline]
Spirochetes number After 10 day subculture [1, 3]: 1 × 10^6 | Spirochetes number After 20 day subculture [1, 3]: about 5×10^6 | Spirochetes number After 20 day subculture ([1]; 10 μg/mL, 7 days treatment, then subculture, listed as Dox): 5 × 10^6 | viability at 10 µg/mL ([1]; Borreliella burgdorferi, 168 h, read-out: Residual viable cells): 44% | Residual viable cells (SYBR Green I/PI assay) ([2]; 50 μM, seven day old stationary phase culture, 7 days): 68% | viability at 20 µM ([2]; Borreliella burgdorferi, 168 h, read-out: Residual viable cells (%) 20 μM (SYBR Green I/PI assay), 20 μM, seven day old stationary phase, 7 days): 76% | viability at 50 µM ([2]; Borreliella burgdorferi, 168 h, read-out: Residual viable cells (SYBR Green I/PI assay), 50 μM, seven day old stationary phase culture, 7 days): 75%
